In patent publication US7208154B2, “Methods and compositions for the treatment of MHC-associated conditions” (Regents of the University of Michigan, priority 2002, dated 2007):
Where two headings read alike, the source gives them in different places. No end group written: not given here.

Experiments:
[1] = system: human fibroblastoid line M1 cells; conditions: for Block of 2CA-triggered DNA repair activity: 10 μM 2CA, co-incubation with various concentrations; for Block of the inhibitory effect of shared epitope peptide (Bead*0401) on 2CA-induced DNA repair: prior incubation of M1 cells: L-NMA 5 mM overnight, KT5823 1 μM 10 min; for Inhibition of cAMP-dependent (2CA-induced) DNA repair induction / genoprotective pathway by pentapeptide: M1 cells preincubated overnight with 50 μg/ml synthetic pentapeptide
Text: To further determine the signaling pathways involved in DNA repair induction, the inventors used the Trevigen CometAssay™ kit (Cat. No. 4250-50-K). The CometAssay is a single-cell gel electrophoresis method that can measure a variety of types of DNA damage, and repair of damage, in individual cells. The assay is based on the alkaline lysis of labile DNA at sites of damage. The unwound, relaxed DNA is able to migrate out of the cell during electrophoresis and can be visualized by SYBR Green staining.
To quantify DNA damage, cells were collected and three parallel samples were processed (a negative control, a DNA damage control (H2O2) and a sample subjected to H2O2 following exposure to various modulators of the cAMP signaling pathway). Cells are then washed in PBS. The washed cells are combined with molten low-melting agarose (Trevigen Cat. No. 4250-50-02) and transferred to a CometSlide™ (Trevigen Cat. No. 4250-100-03). The slides are immersed in lysis buffer for 30 min, on ice, in the dark. The slides are then treated with alkali buffer for 20 to 60 min at room temperature in the dark. The slides are then electrophoresed in buffer for 10 min at 20 volts, then fixed in methanol and ethanol. The slides are then stained with SYBR green (Trevigen Cat. No. 4250-50-05) solution and fluorescently imaged with a Diagnostic Instruments digitized camera, mounted on a Nikon Eclipse E400 microscope. Scion Image software is used to quantitate the comet tail intensity. Each data point is derived from tail fluorescent intensity determination in 50–100 individual cells. Data is presented as % DNA repair (the percent decrement in tail fluorescence intensity in agonist or antagonist-treated cells, relative to the intensity recorded in cells treated with H2O2 only)±SEM. (R.U.s)
To directly examine that possibility, cells were incubated overnight with synthetic peptides corresponding to the region contained within amino acids 65–79 and their ability to mount DNA repair activity in response to cAMP-elevating agents was determined. M1 cells were preincubated overnight with 50 μg/ml of synthetic peptides corresponding to the region surrounding the third allelic hypervariable region (aa 65–79) of each of the following DRβ chains: *0401 (65–79*0401) [SEQ ID NO: 5], *0402 (65–79*0402) [SEQ ID NO: 7], *0403 (65–79*0403) [SEQ ID NO: 9] or *0404(65–79*0404) [SEQ ID NO: 10]. At the end of the preincubation, cells were collected, washed and 2CA-induced DNA repair was determined as above. Table 3 (above) lists the different third allelic hypervariable region peptides used in the entire study disclosed here.
A modified method as described previously by Auger et al. [Nature Med 2:306–310 1996] was used. Briefly, cyanogen bromide activated Speharose 4B (1.5 ml) was washed with 1 mM HCl and incubated with peptides in 0.1 M NaHCO3 and 0.5 M NaCl (pH 8) buffer overnight at 4° C. For each peptide, 5 mg was used per milliliter of Sepharose. Free Sepharose groups were blocked with 0.2 M glycine (pH 8) for 2 hours at room temperature. Columns were washed at 4° C. with the following buffers: 0.1 M NaHCO3, 0.5 M NaCl (pH 8) buffer, then 0.5 M CH3COONa (pH 4) buffer and finally PBS at pH 7.5. M1 cells were plated at a density of 0.5×10^6 cells per well (6 well plate) in 10% FBS DMEM medium until 70–80% confluence. Prior to incubation with peptides, cultures were changed to serum-free DMEM medium, then evenly overlaid with 50 μg bead conjugated peptides, and incubated for the indicated period. Soluble peptides were added overnight to M1 cells at a concentration of 50 μg/ml.

Protein kinase A (PKA) = assay: PKA activity in M1 cells after 2CA; format: cell-based, human; conditions: M1 cells preincubated with peptide-conjugated beads, 10 μM 2CA
Protocol: Protein kinase A (PKA) was measured using the Life Technologies™ Protein Kinase A (cAMP-dependent Protein Kinase) Assay System (Cat. No. 13128-012). The basis of the assay system is the use of a heptapeptide substrate and a 17-amino acid inhibitor peptide (which is valuable for proving PKA-specific protein kinase activity). Four assay conditions per experimental condition are recommended by the manufacturer (+/− inhibitor and +/− cAMP) to determine total PKA-specific kinase activity and proportion of PKA activated in the cells or tissue of interest. Briefly, the four parallel assay conditions are set up for each of the four assay conditions for a given cell or tissue sample, according to the manufacturer's instructions. Substrate and [γ-^32P]ATP (3000–6000 Ci/mmol stock solution) are then added to each tube, and incubated according to the manufacturer's instructions. Following the incubation period, a sample from each tube is spotted onto a […] disc, which is the acid washed prior to scintillation counting (all according to the manufacturer's instructions). Activity can then be determined as described by the manufacturer of the kit.
B.) PKA activity was determined in M1 cells preincubated with peptide-conjugated beads [Bead*0401, SEQ ID NO: 6; Bead*0402, SEQ ID NO: 8], at different time points following treatment with 10 μM 2CA as above.

M1 cells = assay: Intracellular cAMP level (enzyme immunoassay) in M1 cells after 2CA; format: cell-based, human; conditions: M1 cells preincubated 10 min with peptide-conjugated beads, 10 or 100 μM 2CA
Protocol: cAMP was determined by using an Amersham Pharmacia Biotech cAMP enzymeimmunoassay (EIA) system (code RPN 225). The reagents are prepared as described by the manufacturer (lysis reagents 1 and 2, the standard for the non-acetylation assay, the anti-cAMP antiserum, the cAMP peroxidase conjugate and wash buffer). […] Samples are added, followed by the antiserum solution. Following the recommended incubation, cAMP-peroxidase conjugate is added and incubated according to the recommended protocol. Each well is then aspirated and washed, and enzyme substrate is added and incubated. The results can then be read at 630 nm or at 450 nm (depending on the time of incubation and method of stopping the reaction), again according to the manufacturer's protocol.
A.) cAMP levels were assayed in M1 cells that were preincubated for 10 minutes with peptide-conjugated beads [Bead*0401, SEQ ID NO:6; Bead*0402, SEQ ID NO: 8], and intracellular cAMP level changes in response to stimulation with either 10 μM (FIG. 10A, top) or 100 μM (FIG. 10A, bottom) of 2CA were determined at different time points. cAMP levels were measured using a commercial enzyme immunoassay kit from Pharmacia. Results are expressed as fold increase of cAMP above baseline levels.

[2] = system: hybrid neuroblastoma-glioma NG108–15 cell line; assay: Neuroprotection in acutely stressed NG108–15 cells; format: cell-based; conditions: near-confluent NG108–15, 50 μg/ml peptide, 24 hr
Protocol: In order to assess whether shared epitope-containing peptides exert a neuroprotective effect, preliminary experiments were carried out with the hybrid neuroblastoma-glioma NG108–15 cell line. Cells (10^5/ml) were first cultured overnight at near-confluence in 24-well plates in DMEM medium supplemented with 1% fetal calf serum (FCS). Under these conditions, NG108–15 cells show a flat, multipolar morphology and neurite formation. After 20 hours, cells were stressed acutely in serum-free medium (by aspiration of the medium and replacement with serum-free DMEM) with 50 μg/ml of peptides and evaluated morphologically at different time points thereafter. […] Morphological differences between cultures treated with different peptides could be observed as early as 5–6 hrs after treatment. The photographs shown were taken at the 24 hr time point. In another experiment (FIG. 12C), NG108–15 cells were cultured at low cell density (2×10^4/ml) in 1% FCS-containing DMEM medium overnight. The next day cells were subjected to acute stress in serum-free and low glucose (RPMI1640) medium (after aspiration of the 1% FCS DMEM) in the presence of 50 μg/ml of either 65–78*0401 [SEQ ID NO: 6] or 65–78*0402 [SEQ ID NO: 8] peptides. After 72 hours, cells were fixed with 1% formaldehyde and inspected microscopically. Mean±SEM was determined by averaging cell counts in eight randomly-selected microscopic fields in 200× magnification. Neurite-positive cells were defined as cells with one or more projections extending at least twice as long as the cell diameter. […] (FIG. 12C). The calculated number of neurite-positive cells was over 6-fold higher in shared epitope-containing peptide-cultured cells. When cultured in the presence of lysophosphatidic acid or high concentrations of serum, neuronal cells undergo neurite retraction (130). […] Thus, it is concluded that shared epitope-containing peptides may exert neuroprotective effects.

For `CC(=O)N[C@H](C(=O)O)C(C)(C)SN=O` (racemic) [SNAP, S-Nitroso-N-Acetylpenicillamine, reference compound], which “Block of 2CA-triggered DNA repair activity” value [1] is on record?
Its value is “completely blocked”.

`COC(=O)[C@@]1(OC)C[C@H]2O[C@]1(C)n1c3ccccc3c3c4c(c5c6ccccc6n2c5c31)C(=O)N(C)C4` [KT5823, reference compound] was tested. Which “Block of the inhibitory effect of shared epitope peptide (Bead*0401) on 2CA-induced DNA repair” value [1] did it give?
The value was “could be blocked”.

With Gln Lys Arg Leu Ala (QKRLA) as the molecule, how does the “Inhibition of cAMP-dependent (2CA-induced) DNA repair induction / genoprotective pathway by pentapeptide” value [1] read?
The value was “equally effective in suppressing cAMP signaling”.

What about the “Inhibition of cAMP-dependent (2CA-induced) DNA repair induction / genoprotective pathway by pentapeptide” value ([1]; listed as #3) of the same molecule?
The value was “efficiently inhibited the genoprotective pathway”.

For `CNC(=N)NCCC[C@H](N)C(=O)O` [L-NMA, NG-methyl-L-arginine, reference compound], which “Block of the inhibitory effect of shared epitope peptide (Bead*0401) on 2CA-induced DNA repair” value [1] is on record?
The value was “could be blocked”.

Which results are given for “Bead*0402: Sepharose beads chemically conjugated to 14-mer peptide, residues 65–78 of DRβ*0402 chain [SEQ ID NO: 8] (KDILEDERAAVDTY; also: conjugated to Sepharose beads)”?
PKA activation following 2CA (Protein kinase A (PKA)): mounted substantial response to the agonist; cAMP level response to 2CA (M1 cells): mounted substantial response to the agonist

For `Nc1nc2c(nc(Br)n2[C@@H]2O[C@@H]3COP(=O)(O)O[C@H]3[C@H]2O)c(=O)[nH]1` [8-Br-cGMP, 8-bromo-cyclic GMP, reference compound], which “Block of 2CA-triggered DNA repair activity” value [1] is on record?
The value was “completely blocked”.

Which “Inhibition of cAMP-dependent (2CA-induced) DNA repair induction / genoprotective pathway by pentapeptide” value [1] does the source give for Gln Glu Cys Leu Ala (QECLA) here?
The value was “failed to do so”.

`CCCn1c(=O)[nH]c(=O)c2[nH]cnc21` [enprofylline, reference compound] was tested. Which “Block of 2CA-triggered DNA repair activity” value [1] did it give?
The value was “could be blocked”.

How did the “Suppression of cAMP signaling (2CA-induced DNA repair)” value ([1]; M1 cells preincubated overnight with 50 μg/ml recombinant HBc particles) turn out when “HBc*0401: recombinant chimeric hepatitis B core protein with insertion of amino acids 65–79 of the β chain encoded by HLA-DRB*0401” was run?
The value was “effectively suppressed cAMP signaling”.

For `CCCn1c(=O)c2[nH]c(-c3ccc(OCC(=O)NCCN)cc3)nc2n(CCC)c1=O` [XAC, reference compound], which “Block of 2CA-triggered DNA repair activity” value [1] is on record?
Its value is “could be blocked”.

How did the “Inhibition of cAMP-dependent (2CA-induced) DNA repair induction / genoprotective pathway by pentapeptide” value [1] turn out when Gln Lys Cys Leu Ala (QKCLA) was run?
Its value is “equally effective in suppressing cAMP signaling”.

What about the “Inhibition of cAMP-dependent (2CA-induced) DNA repair induction / genoprotective pathway by pentapeptide” value ([1]; listed as #5) of the same molecule?
The value was “efficiently inhibited the genoprotective pathway”.

How did the “PKA activation following 2CA” value (Protein kinase A (PKA)) turn out when “Bead*0401: Sepharose beads chemically conjugated to 14-mer peptide, residues 65–78 of DRβ*0401 chain [SEQ ID NO: 6] (KDLLEQKRAAVDTY; also: conjugated to Sepharose beads)” was run?
The value was “failed to increase cAMP levels or activate PKA”.

And the “cAMP level response to 2CA” value (M1 cells)?
Its value is “failed to increase cAMP levels”.

And the “Block of cAMP-mediated (2CA-induced) DNA repair by Sepharose bead-conjugated peptide” value ([1]; M1 cells preincubated for various times with peptide-conjugated beads)?
The value was “blocked cAMP-mediated DNA repair”.

With `CCCCC[C@H](O)/C=C/[C@H]1[C@H](O)CC(=O)[C@@H]1CCCCCCC(=O)O` [PGE1, prostaglandin E1, reference compound] as the molecule, how does the DNA repair triggered ([1]; M1 cells stimulated 20 min with various concentrations before 100 μM H2O2) read?
The DNA repair triggered was “triggered in all cases DNA repair”.

Gln Lys Arg Ala Ala (QKRAA) was tested. Which “Inhibition of cAMP-dependent (2CA-induced) DNA repair induction / genoprotective pathway by pentapeptide” value [1] did it give?
Its value is “had a similar effect”.

And the “Inhibition of cAMP-dependent (2CA-induced) DNA repair induction / genoprotective pathway by pentapeptide” value ([1]; listed as #1)?
The value was “efficiently inhibited the genoprotective pathway”.

“KDILEDERAAVDTY [65–78*0402, control peptide, amino acids 65–78 of the β chain encoded by the HLA-DRB*0402 allele]” was tested. Which “Cell morphology after acute serum-free stress” value [2] did it give?
The value was “adjacent cells showed a rounding effect and collapsed into aggregates”.

How did the “Block of 2CA-triggered DNA repair activity” value [1] turn out when `O=S(=O)(NCCNC/C=C/c1ccc(Br)cc1)c1cccc2cnccc12` [H-89, reference compound] was run?
The value was “could also be blocked”.

Which results are given for Gln Arg Arg Ala Ala (QRRAA)?
Inhibition of cAMP-dependent (2CA-induced) DNA repair induction / genoprotective pathway by pentapeptide [1]: inhibited completely cAMP-dependent DNA repair induction; Inhibition of cAMP-dependent (2CA-induced) DNA repair induction / genoprotective pathway by pentapeptide ([1]; listed as #2): efficiently inhibited the genoprotective pathway
